Where “and” joins values, the source holds several entries; their conditions need not be identical. Identical values can stand only once.
Experiments:
[1] = test system: MV/FrankfurtMain.DEU/17.11 (genotype D8); assay: White blood cell counts from whole blood; assay type: in vivo, squirrel monkeys (Saimiri sciureus); conditions: for Cells [10^3/mm^3], white blood cells / Cells/ml, white blood cells / Counted Cells (Total), white blood cells: individual animals
Protocol: (§1) White blood cell counts, viral load quantification in PBMCs, and quantification of neutralizing antibody titers were performed as follows: for white blood cell counts, blood was diluted 1:100 in 3% acetic acid and cells were counted using a Neubauer chamber. For viral load quantification in PBMCs, blood was centrifuged at 3000 rpm for 15 min and serum was frozen at −20 °C until further use. Red blood cell lysis was performed and the remaining PBMCs were counted using a Neubauer chamber. Viral titers in PBMCs were quantified in quadruplicates using limited dilution method and calculated as TCID50/10^6 PBMCs. Neutralizing antibody titers were quantified by incubating MeV with 2-fold serial dilutions of the respective serum for 20 min at room temperature in quadruplicates. Vero/hSLAM cells were added and incubated for 3 days at 37 °C. Neutralizing antibody titers are expressed as the reciprocal of the highest serum dilution showing no signs of infection. For virus titration from throat swabs, swabs were placed in 150 μl DMEM with 3% penicillin/streptomycin and the titer was quantified by limited dilution method.

[2] = test system: MV/FrankfurtMain.DEU/17.11 (genotype D8); assay: Neutralizing antibody titers in serum; assay type: in vivo, squirrel monkeys (Saimiri sciureus); conditions: lower limit of detection = 10
Protocol: as §1

Cn1nc(C(F)(F)F)cc1C(=O)Nc1ccc(S(=O)(=O)N2CCCC[C@H]2CCN2CCOCC2)cc1 [ERDRP-0519]
Cells [10^3/mm^3], white blood cells ([1]; therapeutic (d3) group, 7 dpi): 3.25 10^3/mm^3 and 8.25 10^3/mm^3 and 4.75 10^3/mm^3 and 3.75 10^3/mm^3 and 7.25 10^3/mm^3 and 2.25 10^3/mm^3 | Cells/ml, white blood cells ([1]; therapeutic (d3) group, 7 dpi): 8.25E+06 Cells/ml and 4.75E+06 Cells/ml and 3.75E+06 Cells/ml and 7.25E+06 Cells/ml and 2.25E+06 Cells/ml and 3.25E+06 Cells/ml | Counted Cells (Total), white blood cells ([1]; therapeutic (d3) group, 7 dpi): 13 and 33 and 19 and 15 and 29 and 9 | Cells [10^3/mm^3], white blood cells ([1]; therapeutic (d3) group, 10 dpi): 1.75 10^3/mm^3 and 2.75 10^3/mm^3 and 3 10^3/mm^3 and 3.75 10^3/mm^3 and 4.5 10^3/mm^3 and 4.25 10^3/mm^3 | Cells/ml, white blood cells ([1]; therapeutic (d3) group, 10 dpi): 2.75E+06 Cells/ml and 3.00E+06 Cells/ml and 3.75E+06 Cells/ml and 4.50E+06 Cells/ml and 4.25E+06 Cells/ml and 1.75E+06 Cells/ml | Counted Cells (Total), white blood cells ([1]; therapeutic (d3) group, 10 dpi): 7 and 11 and 12 and 15 and 18 and 17 | Cells [10^3/mm^3], white blood cells ([1]; therapeutic (d3) group, 14 dpi): 6 10^3/mm^3 and 7.5 10^3/mm^3 and 5.5 10^3/mm^3 and 10.75 10^3/mm^3 and 12.75 10^3/mm^3 and 3.25 10^3/mm^3 | Cells/ml, white blood cells ([1]; therapeutic (d3) group, 14 dpi): 7.50E+06 Cells/ml and 5.50E+06 Cells/ml and 1.08E+07 Cells/ml and 1.28E+07 Cells/ml and 3.25E+06 Cells/ml and 6.00E+06 Cells/ml | Counted Cells (Total), white blood cells ([1]; therapeutic (d3) group, 14 dpi): 24 and 30 and 22 and 43 and 51 and 13 | Cells [10^3/mm^3], white blood cells ([1]; therapeutic (d3) group, 17 dpi): 4.25 10^3/mm^3 and 5 10^3/mm^3 and 4.75 10^3/mm^3 and 4.5 10^3/mm^3 and 3.75 10^3/mm^3 | Cells/ml, white blood cells ([1]; therapeutic (d3) group, 17 dpi): 5.00E+06 Cells/ml and 4.75E+06 Cells/ml and 4.50E+06 Cells/ml and 3.75E+06 Cells/ml and 4.25E+06 Cells/ml | Counted Cells (Total), white blood cells ([1]; therapeutic (d3) group, 17 dpi): 17 and 20 and 19 and 18 and 15 | Cells [10^3/mm^3], white blood cells ([1]; therapeutic (d3) group, 21 dpi): 4.5 10^3/mm^3 and 3.5 10^3/mm^3 and 10.25 10^3/mm^3 and 7.5 10^3/mm^3 and 2.25 10^3/mm^3 | Cells/ml, white blood cells ([1]; therapeutic (d3) group, 21 dpi): 3.50E+06 Cells/ml and 1.02E+07 Cells/ml and 7.50E+06 Cells/ml and 2.25E+06 Cells/ml and 4.50E+06 Cells/ml | Counted Cells (Total), white blood cells ([1]; therapeutic (d3) group, 21 dpi): 18 and 14 and 41 and 30 and 9 | WBC group mean (Mean 2) ([1]; therapeutic (d3) group, Row 1 (0 dpi)): 5.5 10^3cells/mm^3 | WBC group mean (Mean 2) ([1]; therapeutic (d3) group, Row 2 (3 dpi)): 6.875 10^3cells/mm^3 | WBC group mean (Mean 2) ([1]; therapeutic (d3) group, Row 3 (7 dpi)): 4.917 10^3cells/mm^3 | WBC group mean (Mean 2) ([1]; therapeutic (d3) group, Row 4 (10 dpi)): 3.333 10^3cells/mm^3 | WBC group mean (Mean 2) ([1]; therapeutic (d3) group, Row 5 (14 dpi)): 7.642 10^3cells/mm^3 | WBC group mean (Mean 2) ([1]; therapeutic (d3) group, Row 6 (17 dpi)): 4.45 10^3cells/mm^3 | WBC group mean (Mean 2) ([1]; therapeutic (d3) group, Row 7 (21 dpi)): 5.61 10^3cells/mm^3 | Cells [10^3/mm^3], white blood cells ([1]; therapeutic (d7) group, 0 dpi): 2.75 10^3/mm^3 and 3 10^3/mm^3 (2×) and 7.25 10^3/mm^3 and 5.25 10^3/mm^3 | Cells/ml, white blood cells ([1]; therapeutic (d7) group, 0 dpi): 3.00E+06 Cells/ml (2×) and 7.25E+06 Cells/ml and 5.25E+06 Cells/ml and 2.75E+06 Cells/ml | Counted Cells (Total), white blood cells ([1]; therapeutic (d7) group, 0 dpi): 11 and 12 (2×) and 29 and 21 | Cells [10^3/mm^3], white blood cells ([1]; therapeutic (d7) group, 3 dpi): 7.5 10^3/mm^3 and 12.5 10^3/mm^3 and 6.5 10^3/mm^3 and 7.75 10^3/mm^3 (2×) and 8.75 10^3/mm^3 | Cells/ml, white blood cells ([1]; therapeutic (d7) group, 3 dpi): 1.25E+07 Cells/ml and 6.50E+06 Cells/ml and 7.75E+06 Cells/ml (2×) and 8.75E+06 Cells/ml and 7.50E+06 Cells/ml | Counted Cells (Total), white blood cells ([1]; therapeutic (d7) group, 3 dpi): 30 and 50 and 26 and 31 (2×) and 35 | Cells [10^3/mm^3], white blood cells ([1]; therapeutic (d7) group, 7 dpi): 4 10^3/mm^3 (3×) and 5 10^3/mm^3 and 3 10^3/mm^3 and 3.25 10^3/mm^3 | Cells/ml, white blood cells ([1]; therapeutic (d7) group, 7 dpi): 4.00E+06 Cells/ml (3×) and 5.00E+06 Cells/ml and 3.00E+06 Cells/ml and 3.25E+06 Cells/ml | Counted Cells (Total), white blood cells ([1]; therapeutic (d7) group, 7 dpi): 16 (3×) and 20 and 12 and 13 | Cells [10^3/mm^3], white blood cells ([1]; therapeutic (d7) group, 10 dpi): 3 10^3/mm^3 and 2.75 10^3/mm^3 and 2.5 10^3/mm^3 | Cells/ml, white blood cells ([1]; therapeutic (d7) group, 10 dpi): 2.75E+06 Cells/ml and 2.50E+06 Cells/ml and 3.00E+06 Cells/ml | Counted Cells (Total), white blood cells ([1]; therapeutic (d7) group, 10 dpi): 12 and 11 and 10 | WBC group mean (Mean 2) ([1]; therapeutic (d7) group, Row 1 (0 dpi)): 4.25 10^3cells/mm^3 | WBC group mean (Mean 2) ([1]; therapeutic (d7) group, Row 2 (3 dpi)): 8.458 10^3cells/mm^3 | WBC group mean (Mean 2) ([1]; therapeutic (d7) group, Row 3 (7 dpi)): 3.875 10^3cells/mm^3 | WBC group mean (Mean 2) ([1]; therapeutic (d7) group, Row 4 (10 dpi)): 2.708 10^3cells/mm^3 | WBC group mean (Mean 2) ([1]; therapeutic (d7) group, Row 5 (14 dpi)): 3.125 10^3cells/mm^3 | WBC group mean (Mean 2) ([1]; therapeutic (d7) group, Row 6 (17 dpi)): 4.25 10^3cells/mm^3 | WBC group mean (Mean 2) ([1]; therapeutic (d7) group, Row 7 (21 dpi)): 5.083 10^3cells/mm^3 | neutralizing antibody titer, dilution factor [1/dilution] ([2]; prophylactic group, day 0, individual animals): 10 1/dilution | neutralizing antibody titer, dilution factor [1/dilution] ([2]; prophylactic group, day 3, individual animals): 10 1/dilution | neutralizing antibody titer, dilution factor [1/dilution] ([2]; prophylactic group, day 7, individual animals): 10 1/dilution | neutralizing antibody titer, dilution factor [1/dilution] ([2]; prophylactic group, day 10, individual animals): 10 1/dilution | neutralizing antibody titer, dilution factor [1/dilution] ([2]; prophylactic group, day 14, individual animals): 10 1/dilution (3×) and 80 1/dilution and 15 1/dilution and 30 1/dilution | neutralizing antibody titer, dilution factor [1/dilution] ([2]; prophylactic group, day 17, individual animals): 160 1/dilution and 240 1/dilution and 10 1/dilution (3×) and 17.5 1/dilution | neutralizing antibody titer, dilution factor [1/dilution] ([2]; prophylactic group, day 21, individual animals): 640 1/dilution and 200 1/dilution and 120 1/dilution and 10 1/dilution (2×) and 35 1/dilution | neutralizing antibody titer, dilution factor [1/dilution] ([2]; therapeutic (d3) group, day 0, individual animals): 10 1/dilution | neutralizing antibody titer, dilution factor [1/dilution] ([2]; therapeutic (d3) group, day 3, individual animals): 10 1/dilution | neutralizing antibody titer, dilution factor [1/dilution] ([2]; therapeutic (d3) group, day 7, individual animals): 10 1/dilution | neutralizing antibody titer, dilution factor [1/dilution] ([2]; therapeutic (d3) group, day 10, individual animals): 25 1/dilution and 10 1/dilution (2×) and 12.5 1/dilution | neutralizing antibody titer, dilution factor [1/dilution] ([2]; therapeutic (d3) group, day 14, individual animals): 800 1/dilution and 35 1/dilution and 10 1/dilution and 280 1/dilution and 400 1/dilution and 70 1/dilution | neutralizing antibody titer, dilution factor [1/dilution] ([2]; therapeutic (d3) group, day 17, individual animals): 200 1/dilution (2×) and 30 1/dilution and 240 1/dilution and 80 1/dilution | neutralizing antibody titer, dilution factor [1/dilution] ([2]; therapeutic (d3) group, day 21, individual animals): 320 1/dilution (2×) and 70 1/dilution and 140 1/dilution and 120 1/dilution | neutralizing antibody titer, dilution factor [1/dilution] ([2]; therapeutic (d7) group, day 0, individual animals): 10 1/dilution | neutralizing antibody titer, dilution factor [1/dilution] ([2]; therapeutic (d7) group, day 3, individual animals): 10 1/dilution (5×) and 12.5 1/dilution | neutralizing antibody titer, dilution factor [1/dilution] ([2]; therapeutic (d7) group, day 7, individual animals): 10 1/dilution (5×) and 15 1/dilution | neutralizing antibody titer, dilution factor [1/dilution] ([2]; therapeutic (d7) group, day 10, individual animals): 20 1/dilution and 12.5 1/dilution

— article PMC8413292, “Small-molecule polymerase inhibitor protects non-human primates from measles and reduces shedding” (Nature Communications, 2021)
